US20040115160A1, “Quaternary ammonium esters for disinfection and preservation” (priority 2002, published 2004)

How the values were obtained:
[1] = system: Acanthamoeba polyphaga strain Ros cysts; assay: Acanthamoeba contact lens disinfectant challenge test assay; assay type: cell-based; settings: 25 ppm
Protocol: Acanthamoeba polyphaga strain Ros were used in this study. Trophozoites were maintained at 30° C. in an axenic broth medium composed of 20.0 g Biosate™ (Becton Dickinson, United Kingdom), 5.0 g glucose, 0.3 g KH2PO4, 10 μg vitamin B12 and 15.0 mg L-methionine per litre of deionized water. The pH was adjusted to 6.5-6.6 with 1 M NaOH before autoclaving at 121° C. for 12 minutes. Penicillin and streptomycin were added to a final concentration of 150 μ/ml before use.
Cysts were prepared from trophozoite cultures using the axenic medium supplemented with 50 mM MgCl2. The encystment medium was inoculated with approximately 2×10^5 /ml trophoxoites for culture at 30° C. in a shaking incubator (100 rpm) for 7 days. Cells were enumerated using haemocytometer counting.
The challenge test assay protocol, as described by R. Hughes and S. Kilvington, Comparison of Hydrogen Peroxide Contact Lens Disinfection Systems and Solutions Against Acanthamoeba Polyphaga, Antimicrob. Agents Chemother. 45: 2038-2043, (2001), is set forth in detail below. The number of surviving organisms was calculated as described by L. J. Reed and H. Muench, A Simple Method for Estimating Fifty Percent Endpoints, Am. J. Hyg., 27: 493-497, (1938). Statistical analysis of the data was by One Way Analysis Of Variance (ANOVA).
1. Fifty ml polypropylene centrifuge tubes were aged overnight with 15 ml of disinfectant solution, i.e., ReNue™ 02 (Bausch & Lomb, Rochester, N.Y.). The tubes were then drained, the disinfectant solution discarded, and refilled with 10 ml of fresh disinfectant solution for testing.
2. To a flat-bottomed, 96 well microtitre plate having 8 columns labelled “A” through “H”, 180 μl of neutralizer, i.e., 0.1 percent Tween™ 80 (Baker, Inc., Phillipsburg, N.J.) in one-quarter strength Ringer's solution for biguanide based disinfectants, was added to the outer wells of columns A and H. 180 μl of one-quarter strength Ringer's solution was then added to the remaining inner wells of columns B through G.
3. Amoebae were adjusted to 5×10^6 /ml in one-quarter strength Ringer's solution and 100 μl (5×10^5) was added to 10 ml of disinfectant (5×10^4 /ml) or saline control.
4. At time intervals of 0, 1, 2, 3, 4, 6 and 24 hours:
i. vortexed tubes 5 seconds;
ii. in quadruplet, removed 20 μl (1000 cells) and added to neutralizer wells for the given time-point (i.e., column A, rows 9-12) and made serial 10-fold dilutions across the microtitre plate (i.e., to column D, rows 9-12); and
iii. repeated for each time point.
5. One drop of live E. coli from 3 ml pastette (25 μl of approximately 5×10^7 bacteria/ml) was then added to each well.
6. The plate was then incubated at 32° C. for up to 7 days.
7. The plate was inspected daily for 7 days for the presence of amoebal growth, either trophozoite replication or excystment and trophozoite replication, in the wells.
8. The number of surviving organisms was then estimated at each time interval by Reed and Muench computation and set forth below in Table 3.

[2] = system: cells seeded in Millicell HA 13 mm inserts; assay: Sodium fluorescein permeability assay; assay type: cell-based; settings: 20 min
Protocol: A 0.5 ml cell suspension containing 2×10^5 cells was seeded in Millicell HA 13 mm inserts (Millipore, Bedford, Mass.). The inserts were transferred into 24 well plates containing 0.5 ml of minimum essential medium (MEM) (BioWhittaker, Walkersville, Md.) per well. The plates were then incubated at 37° C. with 5 percent carbon dioxide for six days. Fresh media was added to the wells on days 2 through 6. On day 6 the inserts were used for the permeability assay.
Each insert was gently rinsed three times with 1 ml of Hanks' balanced salt solution (HBSS) using a 10 ml syringe, without a needle. An amount of 0.5 ml of test solution was added to separate inserts that had been placed in a fresh 24 well plate. Triplicate inserts were used for each test solution. The inserts were incubated in a 100 percent humidified chamber at 37 degrees Celsius for twenty minutes. Each series of triplicate samples was handled sequentially to allow exact timing of the treatment and subsequent steps. After incubation, each insert was individually rinsed five times with 1 ml HBSS using a 10 ml syringe without a needle, and then placed in a fresh 24 well plate containing 0.5 ml HBSS in each well. To each insert was added 0.5 ml of sodium fluorescein (3 mg/100 ml in HBSS). The inserts were incubated at room temperature for twenty minutes, removed from the wells, and the amount of sodium fluorescein was measured using a fluorometer at […]. Triplicate negative controls (HBSS solution) and positive controls consisting of sodium dodecyl sulphate (SDS) in water were included during these evaluations. Sodium fluorescein permeability assay results for composition numbers 1 and 14 are summarized below in Table 4.

## CCCCCCCCCCCCCC(=O)OCCC[N+](C)(C)Cc1ccccc1 [Compound 1, N-myristoyloxypropyl-N-benzyl-N,N-dimethylammonium chloride]
[1]; 1 Hr.
  Amoebae Log Kill, Cysts: 3.30 Log
[1]; 4 Hr.
  Amoebae Log Kill, Cysts: 3.30 Log
[2]; 5 ppm
  Sodium fluorescein permeability, Fluorescence Units: 71 Fluorescence Units
[2]; 10 ppm
  Sodium fluorescein permeability, Fluorescence Units: 71 Fluorescence Units
[2]; 15 ppm
  Sodium fluorescein permeability, Fluorescence Units: 77 Fluorescence Units
[2]; 25 ppm
  Sodium fluorescein permeability, Fluorescence Units: 76 Fluorescence Units
[2]; 100 ppm
  Sodium fluorescein permeability, Fluorescence Units: 554 Fluorescence Units
